Measured values taken from US8969612B2, “Low interfacial tension surfactants for petroleum applications” (Soane Energy, LLC, priority 2009, dated 2015).

What was measured:
Assay type in all cases: physicochemical
[1] = Interfacial tension, Du Nouys ring tensiometer (Example 14), interface with light crude oil; details: 1% by weight solution, neutral pH (5 M NaOH); light crude oil API=37.4°
Procedure: (§1) Surfactant molecules were tested for their ability to decrease the surface tension across the aqueous-organic interface.

[2] = Interfacial tension, Du Nouys ring tensiometer (Example 14), interface with ISOPAR M; details: 1% by weight solution, neutral pH (5 M NaOH)
Procedure: as §1

[3] = Interfacial tension, Du Nouys ring tensiometer (Example 14), interface with air; details: 1% by weight solution, neutral pH (5 M NaOH)
Procedure: as §1

[4] = Viscosity of 70:30 heavy oil to water mixture, Brookfield rheometer (Example 16)
Procedure: The mixture was gently stirred until it was observed it achieved a single liquid phase. Previously, the viscosity of the neat heavy oil sample was measured at 3431 cP using a Brookfield DVIII+ Rheometer. […] Next, 1 mL of 10 M HCl was added and the mixture was stirred gently, while observing phase separation of the oil and water.

[5] = Solubility in water at 25° C.

IFT w/Crude Oil [1] [mN/m]	IFT w/ISOPAR [2] [mN/m]	IFT w/air [3] [mN/m]	viscosity of the 70:30 oil to water mixture ([4]; 105 mL heavy oil + 45 mL 1% surfactant solution, neat heavy oil 3431 cP) [cP]	solubility in water (in words) [5]	Compound	viscosity of oil decanted after phase separation with HCl ([4]; after addition of 1 mL of 10 M HCl to the 70:30 mixture)
<0.01	0.09	28.68	100.2		2-(nonen-1-yl)succinic acid mono (2-cyclohexylethyl) ester [Example 3]	same viscosity measurement as the untreated heavy oil sample
				very limited solubility in water	CCCCCC/C=C/CC(CC(=O)OCC(C)(C)COC(=O)CC(C/C=C/CCCCCC)C(=O)O)C(=O)O (stereo not drawn) [Example 2]	
